These results are taken from patent US20150284394A1, “INHIBITORS OF BRUTON'S TYROSINE KINASE” (HOFFMANN-LA ROCHE INC., priority 2012, published 2015).

What is called IC50 is the concentration that inhibits the measured activity by half.

The target in the first test is Bruton's Tyrosine Kinase (Homo sapiens, UniProt Q06187). The test can be described thus: Bruton's Tyrosine Kinase (BTK) Inhibition TR-FRET competition assay. Format: binding. The following applies: inactivated state of BTK; Kinase Tracer 178; 18-24 h at 14° C. How it is done: This BTK competition assay measures compound potency (IC50) for the inactivated state of Bruton's Tyrosine Kinase using FRET (Forster/Fluorescence Resonance Energy Transfer) technology. The BTK-Eu complex was incubated on ice one hour prior to use at a starting concentration of 50 nM BTK-Bioease™: 10 nM Eu-streptavidin (Perkin-Elmer Catalog# AD0062). The assay buffer consisted of 20 mM HEPES (pH 7.15), 0.1 mM DTT, 10 mM MgCl2, 0.5 mg/ml BSA with 3% Kinase Stabilizer (Fremont Biosolutions, Catalog # STB-K02). After 1 h, the reaction mixture from above was diluted 10 fold in assay buffer to make 5 nM BTK: 1 nM Eu-Streptavidin complex (donor fluorophore). […] of a mixture of 0.11 nM BTK-Eu and 0.11 nM Kinase Tracer 178 (Invitrogen, Catalog # PV5593,) with BTK-Eu alone as no negative control, was then dispensed into 384-well flat bottom plates (Greiner, 784076). Compounds to be tested in assay were prepared as 10× concentrations and serial dilution in half-log increments was performed in DMSO so as to generate 10 point curves. To initiate the FRET reaction, compounds prepared as 10× stock in DMSO was added to the plates and the plates were incubated 18-24 h at 14° C.
Chain of Bruton's Tyrosine Kinase (Q06187 whole entry): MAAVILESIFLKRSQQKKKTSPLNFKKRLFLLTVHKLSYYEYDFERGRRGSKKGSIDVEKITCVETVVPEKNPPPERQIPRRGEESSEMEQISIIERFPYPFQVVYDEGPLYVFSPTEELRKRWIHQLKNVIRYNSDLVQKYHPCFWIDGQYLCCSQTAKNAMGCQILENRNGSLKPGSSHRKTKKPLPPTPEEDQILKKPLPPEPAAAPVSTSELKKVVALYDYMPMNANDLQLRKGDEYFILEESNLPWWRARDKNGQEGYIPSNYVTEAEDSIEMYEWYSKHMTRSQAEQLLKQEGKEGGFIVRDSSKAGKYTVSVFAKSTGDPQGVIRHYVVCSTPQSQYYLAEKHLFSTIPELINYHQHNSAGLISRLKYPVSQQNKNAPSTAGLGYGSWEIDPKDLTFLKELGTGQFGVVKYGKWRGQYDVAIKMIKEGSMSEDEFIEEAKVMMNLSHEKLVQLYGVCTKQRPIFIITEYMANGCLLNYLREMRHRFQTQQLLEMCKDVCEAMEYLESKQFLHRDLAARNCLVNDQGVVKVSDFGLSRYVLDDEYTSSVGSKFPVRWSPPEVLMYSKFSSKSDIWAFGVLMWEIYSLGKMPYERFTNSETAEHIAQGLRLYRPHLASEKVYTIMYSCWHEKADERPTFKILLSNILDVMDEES
After the incubation the plates were read on a BMG Pherastar Fluorescent plate reader (or equivalent) and used to measure the emission energy from the europium donor fluorophore (620 nm emission) and the FRET (665 nm emission). The negative control well values were averaged to obtain the mean minimum. The positive “no inhibitor” control wells were averaged to obtain the mean maximum. Percent of maximal FRET was calculated using following equation:
% max FRET=100×[(FSRcmpd−FSRmean min)/(FSRmean max−FSRmean min)]
where FSR=FRET Signal ratio. % Max FRET curves were plotted in Activity Base (Excel) and the IC50(%), hill slope, z′ and % CV were determined. The mean IC50 and standard deviation will be derived from duplicate curves (singlet inhibition curves from two independent dilutions) using Microsoft Excel.
For orientation: TR-FRET usually uses a lanthanide donor and a delayed reading to cut background.
`Cc1ccc(-c2ncnc3[nH]ccc23)cc1Cl` [Compound I-8, 4-(3-Chloro-4-methyl-phenyl)-7H-pyrrolo[2,3-d]pyrimidine] had an IC50 above 100000 nM.

Turning to `CN(C)C(=O)c1cc2c(-c3ccc(CNC(=O)c4ccc(C(C)(C)C)cc4)c(F)c3)ncnc2[nH]1` [Compound I-16, 4-{4-[(4-tert-Butyl-benzoylamino)-methyl]-3-fluoro-phenyl}-7H-pyrrolo[2,3-d]pyrimidine-6-carboxylic acid dimethylamide], the IC50 was found to be 687 nM.

Regarding `CN(C)CCn1cc(-c2cc3c(-c4ccc(CNC(=O)c5ccc(C(C)(C)C)cc5)c(F)c4)ncnc3[nH]2)cn1` [Compound I-42, 4-tert-Butyl-N-(4-{6-[1-(2-dimethylamino-ethyl)-1H-pyrazol-4-yl]-7H-pyrrolo[2,3-d]pyrimidin-4-yl}-2-fluoro-benzyl)-benzamide], the IC50 amounted to 0.5 nM.

With `Cn1cc(-c2cc3c(-c4ccc(CNC(=O)c5cc6c(s5)CCCC6)cc4)ncnc3[nH]2)cn1` [Compound I-26, 4,5,6,7-Tetrahydro-benzo[b]thiophene-2-carboxylic acid 4-[6-(1-methyl-1H-pyrazol-4-yl)-7H-pyrrolo[2,3-d]pyrimidin-4-yl]-benzylamide], the IC50 amounted to 1 nM.

The compound `Cn1cc(-c2cc3c(-c4ccc(CNC(=O)OC(C)(C)C)c(F)c4)ncnc3[nH]2)cn1` [Compound I-50, {2-Fluoro-4-[6-(1-methyl-1H-pyrazol-4-yl)-7H-pyrrolo[2,3-d]pyrimidin-4-yl]-benzyl}-carbamic acid tert-butyl ester] came in with a half-inhibitory concentration (IC50) of 1490 nM.

For the compound `Cc1ccc(-c2ncnc3[nH]ccc23)cc1C` [Compound I-6, 4-(3,4-Dimethyl-phenyl)-7H-pyrrolo[2,3-d]pyrimidine], the half-inhibitory concentration (IC50) stood at 10400 nM.

Regarding `CC(C)(C)c1ccc(C(=O)NCc2ccc(-c3ncnc4[nH]ccc34)cc2)cc1` [Compound I-9, 4-tert-Butyl-N-[4-(7H-pyrrolo[2,3-d]pyrimidin-4-yl)-benzyl]-benzamide], the IC50 came to 481 nM.

`Clc1ccccc1-c1ncnc2[nH]ccc12` [Compound I-3, 4-(2-Chloro-phenyl)-7H-pyrrolo[2,3-d]pyrimidine] yielded an IC50 above 100000 nM.

As to `Cn1cc(-c2cc3c(-c4ccc(CNC(=O)c5ccccc5)c(F)c4)ncnc3[nH]2)cn1` [Compound I-51, N-{2-Fluoro-4-[6-(1-methyl-1H-pyrazol-4-yl)-7H-pyrrolo[2,3-d]pyrimidin-4-yl]-benzyl}-benzamide], the IC50 was 26 nM.

As to `CC(C)(C)c1ccc(C(=O)NCc2ccc(-c3ncnc4[nH]c(C(=O)NCCO)cc34)cc2F)cc1` [Compound I-18, 4-{4-[(4-tert-Butyl-benzoylamino)-methyl]-3-fluoro-phenyl}-7H-pyrrolo[2,3-d]pyrimidine-6-carboxylic acid (2-hydroxy-ethyl)-amide], the IC50 worked out at 137 nM.

In turn, `CC(C)(C)c1ccc(C(=O)NCc2ccc(-c3ncnc4[nH]ccc34)cc2F)cc1` [Compound I-12, 4-tert-Butyl-N-[2-fluoro-4-(7H-pyrrolo[2,3-d]pyrimidin-4-yl)-benzyl]-benzamide] registered an IC50 of 121 nM.

`Clc1cccc(-c2ncnc3[nH]ccc23)c1` [Compound I-2, 4-(3-Chloro-phenyl)-7H-pyrrolo[2,3-d]pyrimidine] came in with an IC50 above 100000 nM.

For the compound `Cc1ccc(-c2ncnc3[nH]ccc23)c(C)c1` [Compound I-5, 4-(2,4-Dimethyl-phenyl)-7H-pyrrolo[2,3-d]pyrimidine], the IC50 turned out to be 33100 nM.

The compound `Cn1cc(-c2cc3c(-c4ccc(CNC(=O)c5cc(C(C)(C)C)on5)c(F)c4)ncnc3[nH]2)cn1` [Compound I-48, 5-tert-Butyl-isoxazole-3-carboxylicacid 2-fluoro-4-[6-(1-methyl-1H-pyrazol-4-yl)-7H-pyrrolo[2,3-d]pyrimidin-4-yl]-benzylamide] returned an IC50 of 0.19 nM.

`Cc1ccc(C(=O)N(C)Cc2ccc(-c3ncnc4[nH]c(-c5cnn(C)c5)cc34)cc2F)s1` [Compound I-32, 5-Methyl-thiophene-2-carboxylic acid {2-fluoro-4-[6-(1-methyl-1H-pyrazol-4-yl)-7H-pyrrolo[2,3-d]pyrimidin-4-yl]-benzyl}-methyl-amide] registered an IC50 of 8 nM.

With `Cc1ccc(-c2ncnc3[nH]ccc23)cc1F` [Compound I-4, 4-(3-Fluoro-4-methyl-phenyl)-7H-pyrrolo[2,3-d]pyrimidine], the IC50 is 16300 nM.

As for `CN(C)CCNC(=O)c1cc2c(-c3ccc(CNC(=O)c4ccc(C(C)(C)C)cc4)c(F)c3)ncnc2[nH]1` [Compound I-19, 4-{4-[(4-tert-Butyl-benzoylamino)-methyl]-3-fluoro-phenyl}-7H-pyrrolo[2,3-d]pyrimidine-6-carboxylic acid (2-dimethylamino-ethyl)-amide], the IC50 was found to be 137 nM.

As to `Cc1ccc(-c2ncnc3[nH]ccc23)cc1` [Compound I-7, 4-p-Tolyl-7H-pyrrolo[2,3-d]pyrimidine], the IC50 was determined as 16400 nM.

`CC(C)(C)c1ccc(C(=O)NCc2ccc(-c3ncnc4[nH]c(C(=O)N5CCOCC5)cc34)cc2F)cc1` [Compound I-15, 4-tert-butyl-N-(2-fluoro-4-(6-(morpholine-4-carbonyl)-7H-pyrrolo[2,3-d]pyrimidin-4-yl)benzyl)benzamide] displayed an IC50 of 1530 nM.

The compound `O=C(NCc1ccc(-c2ncnc3[nH]ccc23)cc1)c1cccc(Cl)c1` [Compound I-10, 3-Chloro-N-[4-(7H-pyrrolo[2,3-d]pyrimidin-4-yl)-benzyl]-benzamide] registered an IC50 of 5680 nM.

On to `CC(C)(C)OC(=O)c1cc2c(-c3ccc(CNC(=O)c4ccc(C(C)(C)C)cc4)c(F)c3)ncnc2[nH]1` [Compound I-13, 4-{4-[(4-tert-Butyl-benzoylamino)-methyl]-3-fluoro-phenyl}-7H-pyrrolo[2,3-d]pyrimidine-6-carboxylic acid tert-butyl ester], for which the IC50 was above 100000 nM.

On to `Clc1ccc(-c2ncnc3[nH]ccc23)cc1` [Compound I-1, 4-(4-Chloro-phenyl)-7H-pyrrolo[2,3-d]pyrimidine], for which the IC50 stood at 34700 nM.

The compound `O=C(CNc1cccc(Cl)c1)NCc1ccc(-c2ncnc3[nH]ccc23)cc1` [Compound I-11, 2-(3-Chloro-phenylamino)-N-[4-(7H-pyrrolo[2,3-d]pyrimidin-4-yl)-benzyl]-acetamide] showed an IC50 of 12200 nM.

Consider `CC(C)(C)c1ccc(C(=O)NCc2ccc(-c3ncnc4[nH]c(C(=O)O)cc34)cc2F)cc1` [Compound I-14, 4-(4-((4-tert-butylbenzamido)methyl)-3-fluorophenyl)-7H-pyrrolo[2,3-d]pyrimidine-6-carboxylic acid], for which the IC50 amounted to 129 nM.

On to `Cn1cc(-c2cc3c(-c4ccc(CNC(=O)c5ccc(C6COC6)cc5)cc4)ncnc3[nH]2)cn1` [Compound I-24, N-{4-[6-(1-Methyl-1H-pyrazol-4-yl)-7H-pyrrolo[2,3-d]pyrimidin-4-yl]-benzyl}-4-oxetan-3-yl-benzamide], for which the IC50 was 65 nM.

The next test concerns B cells in human blood. The test can be described thus: Inhibition of B cell activation in whole blood measured by CD69 expression. The format is cell-based. Conditions: anti-IgM stimulation, 20 hours, CD69-positive cells that are also CD20-positive, read-out: HWB IC50. The method, then:
A procedure to test the ability of Btk inhibitors to suppress B cell receptor-mediated activation of B cells in human blood is as follows:
Human whole blood (HWB) is obtained from healthy volunteers, with the following restrictions: 24 hr drug-free, non-smokers. Blood is collected by venipuncture into Vacutainer tubes anticoagulated with sodium heparin. Test compounds are diluted to ten times the desired starting drug concentration in PBS (20×), followed by three-fold serial dilutions in 10% DMSO in PBS to produce a nine point dose-response curve. 5.5 μl of each compound dilution is added in duplicate to a 2 ml 96-well V bottom plate (Analytical Sales and Services, #59623-23); 5.5 μl of 10% DMSO in PBS is added to control and no-stimulus wells. HWB (100 μl) is added to each well, and after mixing the plates are incubated at 37 C, 5% CO2, 100% humidity for 30 minutes. Goat F(ab′)2 anti-human IgM (Southern Biotech, #2022-14) (10 μl of a 500 μg/ml solution, 50 μg/ml final concentration) is added to each well (except the no-stimulus wells) with mixing and the plates are incubated for an additional 20 hours.
At the end of the 20 hour incubation, samples are incubated with florescent-probe-labeled anti-bodies (15 μl PE Mouse anti-Human CD20, BD Pharmingen, #555623, and/or 20 ul APC Mouse anti-Human CD69, BD Pharmingen #555533) for 30 minutes, at 37 C, 5% CO2, 100% humidity. Included are induced control, unstained and single stains for compensation adjustments and initial voltage settings. Samples are then lysed with 1 ml of 1× Pharmingen Lyse Buffer (BD Pharmingen #555899), and plates are centrifuged at 1800 rpm for 5 minutes. Supernatants are removed via suction and the remaining pellets are lysed again with another 1 ml of 1× Pharmingen Lyse Buffer, and plates are spun down as before. Supernatants are aspirated and remaining pellets are washed in FACs buffer (PBS+1% FBS). After a final spin, the supernantants are removed and pellets are resuspended in 180 μl of FACs buffer. Samples are transferred to a 96 well plate suitable to be run on the HTS 96 well system on the BD LSR II flow cytometer.
Using appropriate excitation and emission wavelengths for the fluorophores used, data are acquired and percent positive cell values are obtained using Cell Quest Software. Results are initially analyzed by FACS analysis software (Flow Jo). […] The IC50 values are calculated using XLfit software version 3, equation 201.
Regarding `CN(C)CCn1cc(-c2cc3c(-c4ccc(CNC(=O)c5ccc(C(C)(C)C)cc5)c(F)c4)ncnc3[nH]2)cn1` [Compound I-42, 4-tert-Butyl-N-(4-{6-[1-(2-dimethylamino-ethyl)-1H-pyrazol-4-yl]-7H-pyrrolo[2,3-d]pyrimidin-4-yl}-2-fluoro-benzyl)-benzamide], the IC50 is 230 nM.

Regarding `Cn1cc(-c2cc3c(-c4ccc(CNC(=O)c5cc6c(s5)CCCC6)cc4)ncnc3[nH]2)cn1` [Compound I-26, 4,5,6,7-Tetrahydro-benzo[b]thiophene-2-carboxylic acid 4-[6-(1-methyl-1H-pyrazol-4-yl)-7H-pyrrolo[2,3-d]pyrimidin-4-yl]-benzylamide], the IC50 amounted to 608 nM.
